Several values for one entry are separate records, joined by “and”; a condition that tells them apart may be missing. Identical values can stand only once.
Test system: KRAS-mutant PDC tumor spheroid with HUVEC/MSC, viability
Experiment: Anticancer human tumor 327498-153-R-J2-PDC patient-derived uterine carcinosarcoma cell line growth inhibition [KRAS2]
Conditions: for viability, T/C: stronger effect = lower value
Excerpt: Multicellular complex tumor spheroid response to RAS pathway inhibitors in combination with a targeted agents in patient-derived cell lines with oncogenic KRAS variants from multiple cancer types
A high-throughput screen of multi-cell type tumor spheroids was designed to identify active combinations of targeted small molecules and KRAS pathway inhibitors. Complex spheroids include a stromal component modeled by human endothelial cells (HUVEC) and fibroblasts modeled by human mesenchymal stem cells (MSCs). The concentration ranges selected for each drug and investigational agent were based upon clinically achievable concentrations if the clinical Cmax of the agent was known.
Compounds. The drugs and investigational agents: BI-3406 (NSC825286), BAY-293 (NSC824723), batoprotafib (TNO155; NSC825523), sotorasib (AMG 510; NSC818433), MRTX1257 (NSC819558), elimusertib (BAY 1895344; NSC800525), molibresib (GSK525762; NSC774829), temuterkib (LY3214996; NSC803410), venetoclax (NSC766270), alisertib (NSC759677), olaparib (NSC753686), talazoparib (NSC767125), erdafitinib (NSC781556), ipatasertib (NSC767898), cabozantinib (NSC761068), nintedanib (NSC756659), abemaciclib (NSC768073), docetaxel (NSC628503), trametinib (NSC758246), and sapanisertib (NSC764658) were obtained from the National Cancer Institute (NCI) Developmental Therapeutics Program Chemical Repository. The FDA-approved anticancer drug set is available from the Developmental Therapeutics Program. […] The stock solutions were prepared in dimethyl sulfoxide (DMSO, Sigma-Aldrich, St. Louis, MO, cat. D2650) at 800-fold the tested concentration and stored at -70 degrees C prior to their use. All drugs and investigational agents were tested over a range starting from a high concentration at or near the clinical Cmax and decreasing in half-log increments. If the clinical Cmax for an agent had not been determined, the highest concentration tested was 10 microM.
Cell Culture. All cells were maintained in an incubator at 37 degrees C and 5% CO2 with 95% humidity. The PDC lines were cultured according to standard operating procedures established by the NCI PDMR (https://pdmr.cancer.gov/sops/default.htm). Briefly, all PDCs were thawed and cultured in Matrigel-coated flasks prepared with a working solution of 1X Ham's F-12 nutrient mix, without supplementation (Invitrogen, Waltham, MA, cat. 11765054), 100 U/mL penicillin-streptomycin (Invitrogen, cat. 15140122), and 2.5% Matrigel (Corning Inc., Corning, NY, cat. 354248) for the first three passages. All PDCs were cultured in complete DMEM/F-12 media containing advanced DMEM/F-12 (Invitrogen, cat. 12634028), 4.9% defined fetal bovine serum, heat inactivated (HyClone Laboratories Inc., Logan, UT, cat. SH30070.03HI), 389 ng/mL hydrocortisone (Sigma-Aldrich, cat. H4001), 9.7 ng/mL human EGF recombinant protein (Invitrogen, cat. PHG0313), 23.4 microg/mL adenine (Sigma-Aldrich, cat. A2786), 97.3 U/mL penicillin-streptomycin (Invitrogen, cat. 15140122), 1.9 mM L-glutamine (Invitrogen, cat. 25030081), and 9.7 microM Y-27632 dihydrochloride (Tocris Bioscience, Bristol, United Kingdom, cat. 1254). The PDCs were cultured in complete DMEM/F12 media without 9.7 microM Y-27632 dihydrochloride for at least two passages prior to the screen. The established cell line HOP-62 was cultured in RPMI 1640 medium, HEPES (Invitrogen, cat. 22400105) with 10% defined fetal bovine serum (HyClone Laboratories Inc., cat. SH30070.03) and 2 mM L-glutamine (Invitrogen, cat. 25030081). The pooled donor HUVEC were cultured in endothelial cell growth medium 2 (PromoCell, Heidelberg, Germany, cat. C-22011) and the hMSC were cultured in mesenchymal stem cell growth medium 2 (PromoCell, cat. C-28009). For all experiments, HUVEC and hMSC were used at passages </=5, while the malignant cell lines were used at passages </=15. […]

[1] = curve of first compound, second compound 0.1 µM
[2] = curve of first compound, second compound 0.316 µM
[3] = curve of first compound, second compound 1 µM
[4] = curve of first compound, second compound 3.16 µM
[5] = curve of first compound, second compound 10 µM
[6] = second compound 0.1 µM, first compound 0.01 µM
[7] = second compound 0.1 µM, first compound 0.0316 µM
[8] = second compound 0.1 µM, first compound 0.1 µM
[9] = second compound 0.1 µM, first compound 0.316 µM
[10] = second compound 0.1 µM, first compound 1 µM
[11] = second compound 0.1 µM, first compound 3.16 µM
[12] = second compound 0.316 µM, first compound 0.01 µM
[13] = second compound 0.316 µM, first compound 0.0316 µM
[14] = second compound 0.316 µM, first compound 0.1 µM
[15] = second compound 0.316 µM, first compound 0.316 µM
[16] = second compound 0.316 µM, first compound 1 µM
[17] = second compound 0.316 µM, first compound 3.16 µM
[18] = second compound 1 µM, first compound 0.01 µM
[19] = second compound 1 µM, first compound 0.0316 µM
[20] = second compound 1 µM, first compound 0.1 µM
[21] = second compound 1 µM, first compound 0.316 µM
[22] = second compound 1 µM, first compound 1 µM
[23] = second compound 1 µM, first compound 3.16 µM
[24] = second compound 3.16 µM, first compound 0.01 µM
[25] = second compound 3.16 µM, first compound 0.0316 µM
[26] = second compound 3.16 µM, first compound 0.1 µM
[27] = second compound 3.16 µM, first compound 0.316 µM
[28] = second compound 3.16 µM, first compound 1 µM
[29] = second compound 3.16 µM, first compound 3.16 µM
[30] = second compound 10 µM, first compound 0.01 µM
[31] = second compound 10 µM, first compound 0.0316 µM
[32] = second compound 10 µM, first compound 0.1 µM
[33] = second compound 10 µM, first compound 0.316 µM
[34] = second compound 10 µM, first compound 1 µM
[35] = second compound 10 µM, first compound 3.16 µM
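Further: spheroids exposed to agents for seven days before reading.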
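Wherever viability, T/C is given: 100% = DMSO vehicle wells so lower means fewer viable cells.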

`C=CC(=O)N1CCN(c2nc(=O)n(-c3c(C)ccnc3C(C)C)c3nc(-c4c(O)cccc4F)c(F)cc23)C(C)C1` (stereo not drawn) was tested, and the IC50 (compound alone, run of 07/12/2021) was > 10000 nM and 1310 nM and 1220 nM.
With `C=CC(=O)N1CCN(c2nc(OCC3CCCN3C)nc3c2CCN(c2cccc4cccc(C)c24)C3)CC1CC#N` (stereo not drawn) the viability, T/C (compound 0.316 µM) was 57.6% [middle of 16 runs] and the viability, T/C (compound 1 µM) was 49.2% [middle of 17 runs].
`CC(=O)OC12COC1CC(O)C1(C)C(=O)C(O)C3=C(C)C(OC(=O)C(O)C(NC(=O)OC(C)(C)C)c4ccccc4)CC(O)(C(OC(=O)c4ccccc4)C21)C3(C)C` (stereo not drawn) + C=CC(=O)N1CCN(c2nc(=O)n(-c3c(C)ccnc3C(C)C)c3nc(-c4c(O)cccc4F)c(F)cc23)C(C)C1 was tested, and the IC50 [1] was < 10 nM, the IC50 [2] was < 10 nM and the IC50 [3] was < 10 nM. The IC50 [4] was < 10 nM, the IC50 [5] was < 10 nM and the viability, T/C [6] was 8.43%. The viability, T/C [7] was 6.6%, the viability, T/C [8] was 5.43% and the viability, T/C [9] was 6.55%. The viability, T/C [10] was 9.48%, the viability, T/C [11] was 11.1% and the viability, T/C [12] was 7.73%. It also gave a viability, T/C [13] of 6.11%, a viability, T/C [14] of 5.72% and a viability, T/C [15] of 7.34%. It also gave a viability, T/C [16] of 8.77%, a viability, T/C [17] of 13.1% and a viability, T/C [18] of 9.81%. For the same molecule, the viability, T/C [19] was 5.71%, the viability, T/C [20] was 10.5% and the viability, T/C [21] was 8.73%. For the same molecule, the viability, T/C [22] was 8.75%, the viability, T/C [23] was 10.7% and the viability, T/C [24] was 9.54%. It also gave a viability, T/C [25] of 7.63%, a viability, T/C [26] of 7.71% and a viability, T/C [27] of 10.1%. It also gave a viability, T/C [28] of 11.2%, a viability, T/C [29] of 12.2% and a viability, T/C [30] of 11.1%. For the same molecule, the viability, T/C [31] was 9.72%, the viability, T/C [32] was 12.5% and the viability, T/C [33] was 13.3%. It also gave a viability, T/C [34] of 12.3% and a viability, T/C [35] of 12.8%.
For `CN(C)C/C=C/C(=O)Nc1cc2c(Nc3ccc(F)c(Cl)c3)ncnc2cc1O[C@H]1CCOC1` + C=CC(=O)N1CCN(c2nc(=O)n(-c3c(C)ccnc3C(C)C)c3nc(-c4c(O)cccc4F)c(F)cc23)C(C)C1, the IC50 [1] was < 0.316 nM, the IC50 [2] was > 100 nM and the IC50 [3] was > 100 nM. For the same molecule, the IC50 [4] was > 100 nM, the IC50 [5] was > 100 nM and the viability, T/C (second compound 0.1 µM, first compound 0.000316 µM) was 86.9%. It also gave a viability, T/C (second compound 0.1 µM, first compound 0.001 µM) of 95.8%, a viability, T/C (second compound 0.1 µM, first compound 0.00316 µM) of 102% and a viability, T/C [6] of 101%. For the same molecule, the viability, T/C [7] was 110%, the viability, T/C [8] was 109% and the viability, T/C (second compound 0.316 µM, first compound 0.000316 µM) was 87.5%. It also gave a viability, T/C (second compound 0.316 µM, first compound 0.001 µM) of 94.9%, a viability, T/C (second compound 0.316 µM, first compound 0.00316 µM) of 97% and a viability, T/C [12] of 106%. It also gave a viability, T/C [13] of 116%, a viability, T/C [14] of 115% and a viability, T/C (second compound 1 µM, first compound 0.000316 µM) of 85.5%. It also gave a viability, T/C (second compound 1 µM, first compound 0.001 µM) of 97.5%, a viability, T/C (second compound 1 µM, first compound 0.00316 µM) of 92.8% and a viability, T/C [18] of 101%. For the same molecule, the viability, T/C [19] was 115%, the viability, T/C [20] was 103% and the viability, T/C (second compound 3.16 µM, first compound 0.000316 µM) was 82.6%. For the same molecule, the viability, T/C (second compound 3.16 µM, first compound 0.001 µM) was 86.9%, the viability, T/C (second compound 3.16 µM, first compound 0.00316 µM) was 91.8% and the viability, T/C [24] was 96.7%. For the same molecule, the viability, T/C [25] was 99.2%, the viability, T/C [26] was 96.7% and the viability, T/C (second compound 10 µM, first compound 0.000316 µM) was 87.2%. The viability, T/C (second compound 10 µM, first compound 0.001 µM) was 100%, the viability, T/C (second compound 10 µM, first compound 0.00316 µM) was 99.6% and the viability, T/C [30] was 105%. For the same molecule, the viability, T/C [31] was 111% and the viability, T/C [32] was 115%.
Work on `O=C(c1cc(Cc2n[nH]c(=O)c3ccccc23)ccc1F)N1CCN(C(=O)C2CC2)CC1` + C=CC(=O)N1CCN(c2nc(=O)n(-c3c(C)ccnc3C(C)C)c3nc(-c4c(O)cccc4F)c(F)cc23)C(C)C1 yielded an IC50 [1] of 970 nM, an IC50 [2] of 713 nM and an IC50 [3] of 588 nM. The IC50 [4] was 488 nM, the IC50 [5] was < 31.6 nM and the viability, T/C [7] was 60.2%. It also gave a viability, T/C [8] of 57.3%, a viability, T/C [9] of 65.3% and a viability, T/C [10] of 48.8%. The viability, T/C [11] was 23.6%, the viability, T/C (second compound 0.1 µM, first compound 10 µM) was 16.3% and the viability, T/C [13] was 59.5%. For the same molecule, the viability, T/C [14] was 59.4%, the viability, T/C [15] was 57.5% and the viability, T/C [16] was 46.8%. It also gave a viability, T/C [17] of 21.9%, a viability, T/C (second compound 0.316 µM, first compound 10 µM) of 15.2% and a viability, T/C [19] of 66.3%. It also gave a viability, T/C [20] of 60.1%, a viability, T/C [21] of 56% and a viability, T/C [22] of 46.2%. For the same molecule, the viability, T/C [23] was 26.5%, the viability, T/C (second compound 1 µM, first compound 10 µM) was 16.4% and the viability, T/C [25] was 66%. It also gave a viability, T/C [26] of 61.2%, a viability, T/C [27] of 51.7% and a viability, T/C [28] of 46.4%. The viability, T/C [29] was 22.6%, the viability, T/C (second compound 3.16 µM, first compound 10 µM) was 18.2% and the viability, T/C [31] was 49.5%. The viability, T/C [32] was 48.2%, the viability, T/C [33] was 47.3% and the viability, T/C [34] was 36.3%. For the same molecule, the viability, T/C [35] was 24.8% and the viability, T/C (second compound 10 µM, first compound 10 µM) was 18.9%.

Reference: PubChem BioAssay AID1963867 (Molecular Pharmacology Branch, DTP, NCI, 2024)
